# Assay results: patent US11801257B2, “Stimulation of an immune response by enantiomers of cationic lipids” (PDS Biotechnology Corporation, priority 2008, dated 2023)
# Tests used:
# TC-1 HPV-positive tumors = assay: TC-1 HPV-positive tumor growth in mice treated with cationic lipid/E7 compositions; type: in vivo; conditions: for ability to eradicate HPV-E7 positive tumors in tumor-bearing mice (tumor regression): lipid/E7 formulations, multiple lipid doses, summary statements
# Procedure: TC-1 cells are C57BL/6 mouse lung […] cells that have been transformed with the HPV16 E6 and E7 oncogenes and activated H-ras. Cells were grown in RPMI medium (commercially available from Invitrogen of Carlsbad, CA) supplemented with 10% fetal bovine serum and 100 U/ml penicillin, and […] streptomycin. The MHC class I restricted peptide from the HPV 16 E7 protein (amino acid 11 to 20, YMLDLQPETT [SEQ. ID. NO. 1]) was synthesized by the University of Pittsburgh Peptide Synthesis Facility by solid state synthesis using an Advanced ChemTech model 200 peptide synthesizer and purified by HPLC.
# In FIG. 12, mice were subcutaneously injected with TC-1 cells on day 0 in order to induce the growth of HPV-positive tumors. The DOTAP/E7 compositions were comprised of racemic mixtures of DOTAP. The mice received DOTAP/E7 compositions containing 10 μg E7 peptide subcutaneously on the opposite side of the abdomen on day 6.
# In FIGS. 13 and 14, mice were subcutaneously injected with TC-1 cells on day 0 in order to induce the growth of HPV-positive tumors. The mice received R and S-DOTAP/E7 compositions containing 20 μg E7 peptide subcutaneously on the opposite side of the abdomen on day 6. R or S-DOTAP lipid concentrations in the complex varied from 3 to 600 nmole (3, 15, 30, 75, 100, 125, 150, 300, and 600 nmole).
# human T lymphocytes = conditions: cited from earlier work
# purified human T-cells = assay: Induction of human T-cell proliferation by R and S enantiomers of DOTAP; type: cell-based
# From the text: In the present studies, the induction of human T-cell proliferation by the R and S enantiomers of DOTAP was investigated and confirmed using purified T-cells obtained from Lonza, MA.
# DC2.4 dendritic cells = conditions: cited from earlier work; for ability to stimulate the expression of CD 80 on DC 2.4 cells (relative potency): comparison by head group and acyl chain; for expression of CD80/CD86: liposomes, DC2.4 cells
# [1] = test system: Human HLA-A2 dendritic cells; assay: Chemokine and cytokine production by human dendritic cells (Searchlight Protein Array Multiplex ELISA); type: cell-based; conditions: 40 micromolar complex
# Procedure: Human HLA-A2 dendritic cells (Lonza, Walkersville, MD), were treated and grown in culture as described above. On day 3 the cells were treated with 40 micromolar DOTAP/E7 complex or the potent immunostimulator lipopolysaccharide (LPS) at 50 micromolar concentrations (positive control). Medium from assay wells was removed and centrifuged at 1300 rpm in a microfuge for 5 minutes to pellet unattached dendritic cells. The supernatants were removed and treated with 10 microliters per ml of Calbiochem (La Jolla, CA) protease inhibitor cocktail set I (Cat. No. 539131) and stored frozen prior to analysis. Samples were analyzed for chemokine and cytokine expression by Searchlight Protein Array Multiplex ELISA assay [Pierce Biotechnology (Woburn, MA)].
# [2] = lipid 600 nmole with 20 μg E7 peptide, s.c. day 6 (S-DOTAP P<0.05)
compound,measurement,setting,value
"YMLDLQPETT (Human papillovirus subtype 16 E7 oncogene tumor-associated antigen MHC class I restricted peptide) [E7 peptide, ID; NO]",inhibition of tumor growth,"TC-1 HPV-positive tumors; peptide alone, no lipid (not shown)",did not show any inhibition of tumor growth
"CCCCCCCC/C=C\CCCCCCCC(=O)OC[C@@H](C[N+](C)(C)C)OC(=O)CCCCCCC/C=C\CCCCCCCC [DOTAP, 1,2-dioleoyl-3-trimethylammoninum propane]",expansion of T cell colonies in culture,"human T lymphocytes; HLA-A2+ donor lymphocytes, three stimulations at 7-day interval, three days after third, versus medium control",extensive expansion of T cell colonies
same,ERK phosphorylation in T cells,human T lymphocytes,confirmed by ERK phosphorylation
same,expression of costimulatory molecule CD86 on human T lymphocytes,human T lymphocytes,"induced expression of the costimulatory molecule, CD86"
same,inhibition of tumor growth,"TC-1 HPV-positive tumors; liposomes 100 nmole, without E7 peptide",did not show significant inhibition of tumor growth
same,tumor growth versus untreated control on day 23,"TC-1 HPV-positive tumors; racemic DOTAP 15 nmole with 10 μg E7 peptide, s.c. day 6, P<0.05",partial tumor inhibition effect
same,tumor growth versus untreated control on day 23,"TC-1 HPV-positive tumors; racemic DOTAP 30 nmole with 10 μg E7 peptide, s.c. day 6, P<0.01",enhanced efficacy
same,tumor growth versus untreated control on day 23,"TC-1 HPV-positive tumors; racemic DOTAP 75 nmole with 10 μg E7 peptide, s.c. day 6, P<0.001",most significant tumor regression effect
same,tumor growth versus untreated control on day 23,"TC-1 HPV-positive tumors; racemic DOTAP 150 nmole with 10 μg E7 peptide, s.c. day 6, P<0.01",enhanced efficacy
same,tumor growth versus untreated control on day 23,"TC-1 HPV-positive tumors; racemic DOTAP 300 nmole with 10 μg E7 peptide, s.c. day 6, P<0.01",enhanced efficacy
same,tumor growth versus untreated control on day 23,"TC-1 HPV-positive tumors; racemic DOTAP 600 nmole with 10 μg E7 peptide, s.c. day 6",did not show anti-tumor activity
"CCCCCCCC/C=C\CCCCCCCC(=O)OC[C@@H](C[N+](C)(C)C)OC(=O)CCCCCCC/C=C\CCCCCCCC [S-DOTAP, 1,2-dioleoyl-3-trimethylammoninum propane]",tumor growth versus untreated control on day 23,TC-1 HPV-positive tumors; [2],induced the slowest tumor growth
same,tumor growth / tumor regression over the lipid dose series,"TC-1 HPV-positive tumors; lipid 3 to 600 nmole with 20 μg E7 peptide, s.c. day 6",did not exhibit the ability to inhibit tumor growth and no tumor regression was observed
same,ability to eradicate HPV-E7 positive tumors in tumor-bearing mice (tumor regression),TC-1 HPV-positive tumors,only limited tumor regression
same,dose range that effectively attenuates tumor growth,"TC-1 HPV-positive tumors; rodent species, listed as S-enantiomer of DOTAP",effective over this same range of doses
same,induction of human T-cell proliferation,purified human T-cells,confirmed
"CCCCCCCC/C=C\CCCCCCCC(=O)OC[C@@H](COP(=O)(OCC)OCC[N+](C)(C)C)OC(=O)CCCCCCC/C=C\CCCCCCCC (stereo partly drawn) [DOEPC-18:1, 1,2-dioleoyl-sn-glycero-3-ethylphosphocholine]",ability to stimulate the expression of CD 80 on DC 2.4 cells (relative potency),DC2.4 dendritic cells,more potent
"CCCCCCCCCCCCCCOC(=O)C[C@H](NC(=O)[C@@H](N)CCCCN)C(=O)OCCCCCCCCCCCCCC [DMKE, O,O′-dimyristyl-N-lysyl aspartate]",expression of CD80/CD86,DC2.4 dendritic cells,strongly stimulated
"CCCCCCCCCCCC(=O)OC[C@H](COP(=O)(OCC)OCC[N+](C)(C)C)OC(=O)CCCCCCCCCCC (stereo partly drawn) [DXEPC-12:0, 1,2-dilauroyl-sn-glycero-3-ethylphosphocholine]",ability to stimulate the expression of CD 80 on DC 2.4 cells (relative potency),DC2.4 dendritic cells,more potent
"CCCCCCCCCCCCCCOC(=O)CC[C@H](NC(=O)[C@@H](N)CCCCN)C(=O)OCCCCCCCCCCCCCC [DMKD, O,O′-dimyristyl-N-lysyl-glutamate]",expression of CD80/CD86,DC2.4 dendritic cells,strongly stimulated
"CCCCCCCC/C=C\CCCCCCCC(=O)OC[C@@H](C[N+](C)(C)C)OC(=O)CCCCCCC/C=C\CCCCCCCC [R-DOTAP, 1,2-dioleoyl-3-trimethylammoninum propane]",tumor growth versus untreated control on day 23,"TC-1 HPV-positive tumors; lipid 300 nmole with 20 μg E7 peptide, s.c. day 6, P<0.0001",most significant tumor regression efficacy
same,tumor growth versus untreated control on day 23,TC-1 HPV-positive tumors; [2],did not show significant anti-tumor activity
same,tumor growth versus untreated control on day 23,"TC-1 HPV-positive tumors; lipid 75-150 nmole with 20 μg E7 peptide, s.c. day 6, P<0.001",partial tumor inhibition effect
same,ability to eradicate HPV-E7 positive tumors in tumor-bearing mice (tumor regression),TC-1 HPV-positive tumors,results in tumor regression
same,potency in inducing chemokine and cytokine production relative to DOTAP racemic mixture,[1],equivalent to or higher than
same,"potency in inducing chemokine and cytokine production, R versus S enantiomer",[1],more potent immune activator than S-DOTAP
same,"potency in inducing chemokine and cytokine production, R versus S enantiomer",[1]; listed as R-enantiomer,higher potency
same,induction of human T-cell proliferation,purified human T-cells,induced more T-cell proliferation than S-DOTAP
"CCCCCCCC/C=C\CCCCCCCC(=O)OC[C@H](COP(=O)(O)OCC(O)CO)OC(=O)CCCCCCC/C=C\CCCCCCCC (stereo partly drawn) [DOPG, 1,2-dioleoyl-sn-glycero-3-phosphoglycerol]",inhibition of tumor growth,TC-1 HPV-positive tumors; anionic lipid liposomes 150 nmole with antigen,failed to significantly inhibit tumor growth
"CCCCCCCCCCCCCC(=O)OCC(COP(=O)(OCC)OCC[N+](C)(C)C)OC(=O)CCCCCCCCCCCCC (stereo not drawn) [DMEPC-14:0, 1,2-dimyristoyl-sn-glycero-3-ethylphosphocholine]",ability to stimulate the expression of CD 80 on DC 2.4 cells (relative potency),DC2.4 dendritic cells,more potent
